Source: patent US20250206779A1, “ANGIOTENSIN-(1-9) ANALOGUE BASED ON D AMINO ACIDS, PHARMACEUTICAL COMPOSITIONS AND USES THEREOF” (UNIVERSIDAD DE CHILE, priority 2021, published 2025)
Where a SMILES comes first, the peptide text is derived from it. [ ]: non-standard residue; d: D form.

Key:
[1] = Stability in human serum determined by HPLC; type: in vitro ADME; conditions: male, 48 h incubation, 37° C., read-out: degradation after incubation with human serum
Protocol: The retro-inverse peptides were dissolved in PBS to obtain a final concentration of 1 mM. From this stock, an aliquot of 50 μL was taken and diluted to 450 μL of human serum (Sigma Aldrich from human male AB plasma, USA origin, sterile-filtered) at 37° C. under agitation, to obtain an initial concentration of […] and incubated for 48 h. Aliquots of 50 μL were extracted at 0, 5, 10 min and 1, 3, 6, 24 and 48 h and added to 200 μL of methanol at 4° C. for 30 min to precipitate serum proteins. The samples were then centrifuged at 13,000 g in Hermle Cooling Centrifuge Z 326 K 311.00 V01 at 4° C. for 30 min. The supernatants (approximately 200 μL) were obtained, placed in vials, and then analyzed by HPLC. All analyzes were performed on the Perkin Elmer auto sampler flexo HPLC, using a reverse phase 4.6×100 mm column with a particle size of […] (Waters XBridge Peptide BEH C18 Column). Mobile phase A was 100% acetonitrile and phase B was TFA 0.0004% in Milli-Q water. The initial composition of eluent was 5% A and 95% B for 1 min and then a linear gradient to reach 100% A in 19 min and then return to the initial composition in 4 min, with a total run time of 25 min. The eluent flow was 0.9 mL/min and the temperature of the column was adjusted to 26° C. L measurement was performed at a UV signal of 220 nm wavelength. Where 50 μL was injected per sample. Peptides were identified based on their retention time in the respective chromatogram obtained in the Chromera-HPLC flexar program.

[2] = test system: adult rat cardiac fibroblasts; test: Cardiac fibroblast proliferation, cell count in Neubauer chamber; type: cell-based; conditions: DMEM F-12 5% FBS, 24 h, trypan blue cell count
Protocol: Male Sprague-Dawley rats (250-300 g) were anesthetized with ketamine-xylazine (66 and 1.6 mg/kg i.p., respectively). Adult rat cardiac fibroblasts were isolated by retrograde aortic perfusion. Briefly, hearts were digested with collagenase type B solution for 1 h, and cells were centrifuged at 500 rpm for 2 min. The supernatant, mainly adult rat cardiac fibroblasts, was centrifuged at 1000 rpm for 10 min, resuspended in Dulbecco's Modified Eagle Medium: Nutrient Mixture F-12 (DMEM F-12) plus 15% fetal bovine serum (FBS) and then seeded in nontreated culture dishes during 3 h. Cells were washed with phosphate buffered saline to eliminate debris and nonadherent cells. Adult rat cardiac fibroblasts were used at passage one and seeded on 60 mm cell culture dishes in DMEM F-12 plus 10% FBS and incubated at […] for 3 h. To synchronize cells, they were washed and incubated in DMEM F-12 (without serum, 0% FBS) for 24 h before experimentation. Cell proliferation was determined in cardiac fibroblasts incubated for 24 h with and without retro-inverse angiotensin-(1-9) in DMEM F-12 5% FBS. Cells were trypsinized and cell number was determined using trypan blue method in a Neubauer chamber.

[3] = test system: cardiac myocytes isolated from neonatal Sprague-Dawley rat ventricles; test: Norepinephrine-induced cardiomyocyte hypertrophy, western blot of β-MHC and ANP; type: cell-based; conditions: 1, 10 or 100 μM peptide, 10 μM norepinephrine
Protocol: Cardiac myocytes were isolated from neonatal Sprague-Dawley rat ventricles. Cardiac myocytes were plated at 70% final density in gelatin-coated wells (12-well plates) or in 60-mm Petri dishes and maintained at 37° C. in a humidified atmosphere of 5% CO2/95% air for 24 h in Dulbecco's Modified Eagle's medium [(DMEM)/M199](4:1) containing 10% fetal bovine serum and 5% fetal calf serum. Serum was withdrawn 24 h before preincubation with 1, 10 or 100 μM retro-inverse angiotensin-(1-9) for 1 h; then, 10 μM norepinephrine (Sigma, St Louis, Missouri, USA) were added and the cultures were incubated for 24 h. Then cells were washed with PBS at 4° C. and then cells were lysed with 50 μL of RIPA lysis buffer (Tris-HCl 10 mM pH 7.4, EDTA 5 mM, NaCl 50 mM, deoxycholic acid 1%, Triton X-100 1% v/v) supplemented with phosphatase and protease inhibitors (Roche). After centrifugation at 12,000 r.p.m. for 15 min at 4° C., the supernatat was recovered; total protein content was determined by using Bradford (BioRad protein assay, BioRad, Hercules, CA, USA). Proteins were denatured in SDS-PAGE 4× buffer and resolved in 12% PAGE-SDS. After electrotransference, beta-myosin heavy chain (β-MHC) and atrial natriuretic peptide (ANP) were used as hypertrophic markers. β-tubulin was used as loading control. As expected, norepinephrine 10 μM for […], a cardiomyocyte hypertrophy inducer, triggered β-MHC and ANP increase (FIG. 3).

In the case of CC[C@@H](C)[C@@H](NC(=O)[C@@H](Cc1c[nH]cn1)NC(=O)[C@H]1CCCN1C(=O)[C@@H](Cc1ccccc1)NC(=O)[C@H](N)Cc1c[nH]cn1)C(=O)N[C@H](Cc1ccc(O)cc1)C(=O)N[C@@H](C(=O)N[C@H](CCCNC(=N)N)C(=O)N[C@H](CC(=O)O)C(=O)O)C(C)C [retro-inverse angiotensin-(1-9), NH2-^DH^DF^DP^DH^DI^DY^DV^DR^DD-COOH] (H-[dH][dF][dP][dH][dI][dY][dV][dR][dD]-OH), the metabolised at 48 h, 20 μM [1] is reported as less than 20%, the fibroblast proliferation [2] is reported as “inhibited fibroblast proliferation” and the “increase of ANP induced by norepinephrine” value [3] is reported as “inhibited, in a dose response manner”. The “increase of β-MHC induced by norepinephrine” value [3] was “inhibited, in a dose response manner”.
